Experiments:
Human κ-Opioid (KOP) = molecular target: T1, Human κ-Opioid (KOP) (Homo sapiens, UniProt P41145); test: Radioligand binding, human κ-opioid (KOP) membranes, filtration, [3H]-Diprenorphine; conditions: compound at 10 μM; [3H]-Diprenorphine, human KOP membranes
T1 construct: purchased Perkin Elmer Biosignal
How it was run: (§1)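 Membranes from cloned human receptors were incubated with compound and radioligand for 1 hour at room temperature. Bound ligand was collected on 0.3% PEI-soaked filters, washed with cold 50 mM Tris-HCl pH 7.4, and counted by scintillation. Percent inhibition was computed against DMSO totals and reference-ligand nonspecific wells.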

Human μ-opioid (MOP) = molecular target: T2, Human μ-opioid (MOP) (Homo sapiens, UniProt P35372); test: Radioligand binding, human μ-opioid (MOP) membranes, FlashPlate, [3H]-Naloxone; conditions: compound at 10 μM; [3H]-Naloxone, human MOP membranes
T2 construct: purchased Perkin Elmer Biosignal
How it was run: (§2)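 Cloned human receptor membranes were coated onto FlashPlate wells and incubated with radioligand and compound (added from a 0.5 mM DMSO daughter plate) for 1 hour at room temperature in the dark. Scintillation counting gave percent inhibition, with DMSO defining total and reference ligand defining non-specific binding.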

Mouse urotensin (mUR2) = molecular target: T3, Mouse urotensin (mUR2) (Mus musculus, UniProt Q8VIH9); test: Radioligand binding, mouse urotensin mUR2 membranes, FlashPlate, [125I]-Urotensin II; conditions: compound at 10 μM; [125I]-Urotensin II, mouse mUR2 membranes
T3 construct: purchased Perkin Elmer Biosignal
T3 sequence (Q8VIH9 1-385): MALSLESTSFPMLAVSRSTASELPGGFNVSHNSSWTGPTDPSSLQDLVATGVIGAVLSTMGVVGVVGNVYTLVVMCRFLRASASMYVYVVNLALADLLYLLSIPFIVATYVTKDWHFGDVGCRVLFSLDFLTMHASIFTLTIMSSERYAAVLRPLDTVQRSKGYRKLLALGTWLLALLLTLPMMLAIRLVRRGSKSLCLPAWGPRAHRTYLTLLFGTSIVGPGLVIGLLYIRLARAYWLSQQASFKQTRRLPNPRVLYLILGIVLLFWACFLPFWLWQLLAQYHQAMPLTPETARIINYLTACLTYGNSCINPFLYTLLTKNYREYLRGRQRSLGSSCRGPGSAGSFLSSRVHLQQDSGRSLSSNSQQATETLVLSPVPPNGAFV
How it was run: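 Cloned mouse urotensin (mUR2) receptor membranes from Perkin Elmer Biosignal were immobilized in FlashPlate microplates using a proprietary coating. Each well got 19.5 μl buffer, then 0.5 μl of DMSO, reference ligand, or compound. Adding 5 μl of [125I]-Urotensin II, diluted to 5× final concentration in binding buffer, started binding. Plates were sealed with TopSeal-A and incubated 1 hour at room temperature in the dark. Wells were counted for 30 seconds each on a TopCount after a 60-second delay, and percentage inhibition was calculated.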

Human neurokinin (NK1) = molecular target: T4, Human neurokinin (NK1) (Homo sapiens, UniProt P25103); test: Radioligand binding, human neurokinin NK1 membranes, filtration, [125I]-Substance P; conditions: compound at 10 μM; [125I]-Substance P, human NK1 membranes
T4 construct: purchased Perkin Elmer Biosignal
How it was run: as §1

Human melanocortin (MC5) = molecular target: T5, Human melanocortin (MC5) (Homo sapiens, UniProt P33032); test: Radioligand binding, human melanocortin MC5 membranes, FlashPlate, [125I]-NDP-αMSH; conditions: compound at 10 μM; [125I]-NDP-αMSH, human MC5 membranes
T5 construct: purchased Perkin Elmer Biosignal
How it was run: as §2

[1] = molecular target: T6, Human melanin-concentrating hormone (MCH1) (Homo sapiens, UniProt Q99705); test: Radioligand binding, human melanin-concentrating hormone MCH1 membranes, FlashPlate, [125I]-S36057; conditions: compound at 10 μM; [125I]-S36057, human MCH1 membranes
T6 construct: purchased Perkin Elmer Biosignal
How it was run: as §2

Human opioid (ORL1) = molecular target: T7, Human opioid (ORL1) (Homo sapiens, UniProt P41146); test: Radioligand binding, human opioid ORL1 membranes, FlashPlate, [125I]-Nociceptin; conditions: compound at 10 μM; [125I]-Nociceptin, human ORL1 membranes
T7 construct: purchased Perkin Elmer Biosignal
How it was run: as §2

[2] = molecular target: T8, Human neuropeptide Y (NPY-Y1) (Homo sapiens, UniProt P25929); test: Radioligand binding, human neuropeptide Y NPY-Y1 membranes, FlashPlate, [125I]-PYY; conditions: compound at 10 μM; [125I]-PYY, human NPY-Y1 membranes
T8 construct: purchased Perkin Elmer Biosignal
T8 sequence (P25929 1-384): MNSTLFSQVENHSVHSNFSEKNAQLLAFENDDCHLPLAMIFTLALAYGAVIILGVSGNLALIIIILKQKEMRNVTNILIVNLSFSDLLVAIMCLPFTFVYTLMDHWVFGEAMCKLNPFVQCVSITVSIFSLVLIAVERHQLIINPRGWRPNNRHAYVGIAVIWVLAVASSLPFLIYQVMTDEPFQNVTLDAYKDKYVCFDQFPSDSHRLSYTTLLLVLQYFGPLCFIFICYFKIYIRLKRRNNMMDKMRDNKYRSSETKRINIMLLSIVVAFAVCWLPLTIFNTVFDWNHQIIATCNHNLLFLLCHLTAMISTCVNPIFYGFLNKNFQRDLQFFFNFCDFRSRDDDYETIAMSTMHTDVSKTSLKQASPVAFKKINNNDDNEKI
How it was run: as §2

Human Melanocortin (MC3) = molecular target: T9, Human Melanocortin (MC3) (Homo sapiens, UniProt P41968); test: Radioligand binding, human melanocortin MC3 membranes, FlashPlate, [125I]-NDP-αMSH; conditions: compound at 10 μM; [125I]-NDP-αMSH, human MC3 membranes
T9 construct: purchased Perkin Elmer Biosignal
How it was run: as §2

Human Melanocortin (MC4) = molecular target: T10, Human Melanocortin (MC4) (Homo sapiens, UniProt P32245); test: Radioligand binding, human melanocortin MC4 membranes, FlashPlate, [125I]-NDP-αMSH; conditions: compound at 10 μM; [125I]-NDP-αMSH, human MC4 membranes
T10 construct: purchased Perkin Elmer Biosignal
How it was run: as §2

Human δ-opioid (DOP) = molecular target: T11, Human δ-opioid (DOP) (Homo sapiens, UniProt P41143); test: Radioligand binding, human δ-opioid (DOP) membranes, FlashPlate, [3H]-Bremazocine; conditions: compound at 10 μM; [3H]-Bremazocine, human DOP membranes
T11 construct: purchased Perkin Elmer Biosignal
How it was run: as §2

T7 sequence (P41146 whole entry): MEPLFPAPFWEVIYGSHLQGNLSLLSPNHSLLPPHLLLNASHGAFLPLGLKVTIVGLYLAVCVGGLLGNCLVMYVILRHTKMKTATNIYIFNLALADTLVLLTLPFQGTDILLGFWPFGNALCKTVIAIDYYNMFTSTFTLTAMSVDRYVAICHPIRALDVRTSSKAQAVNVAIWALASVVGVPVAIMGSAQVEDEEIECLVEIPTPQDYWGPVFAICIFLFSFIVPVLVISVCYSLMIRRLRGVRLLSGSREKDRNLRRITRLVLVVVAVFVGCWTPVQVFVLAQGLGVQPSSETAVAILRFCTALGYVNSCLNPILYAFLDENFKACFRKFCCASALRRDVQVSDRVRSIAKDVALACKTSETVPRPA
T9 sequence (P41968 whole entry): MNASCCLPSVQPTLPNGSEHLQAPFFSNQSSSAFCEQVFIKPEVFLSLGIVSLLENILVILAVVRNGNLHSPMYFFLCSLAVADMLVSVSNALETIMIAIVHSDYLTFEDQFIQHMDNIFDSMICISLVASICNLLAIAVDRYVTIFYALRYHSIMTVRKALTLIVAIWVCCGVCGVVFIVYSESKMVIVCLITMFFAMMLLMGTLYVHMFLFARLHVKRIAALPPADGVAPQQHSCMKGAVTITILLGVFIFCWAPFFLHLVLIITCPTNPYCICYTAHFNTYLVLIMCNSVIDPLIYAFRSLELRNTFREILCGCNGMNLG
T6 sequence (Q99705 whole entry): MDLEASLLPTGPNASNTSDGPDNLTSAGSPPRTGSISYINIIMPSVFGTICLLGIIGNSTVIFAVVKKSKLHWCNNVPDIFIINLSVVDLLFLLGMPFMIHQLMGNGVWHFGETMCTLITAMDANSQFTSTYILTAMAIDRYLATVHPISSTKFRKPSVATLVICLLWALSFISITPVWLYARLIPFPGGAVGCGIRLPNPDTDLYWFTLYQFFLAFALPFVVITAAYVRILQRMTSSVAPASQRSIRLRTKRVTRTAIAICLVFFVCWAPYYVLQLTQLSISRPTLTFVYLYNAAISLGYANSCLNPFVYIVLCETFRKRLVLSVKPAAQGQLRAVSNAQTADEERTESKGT
T2 sequence (P35372 whole entry): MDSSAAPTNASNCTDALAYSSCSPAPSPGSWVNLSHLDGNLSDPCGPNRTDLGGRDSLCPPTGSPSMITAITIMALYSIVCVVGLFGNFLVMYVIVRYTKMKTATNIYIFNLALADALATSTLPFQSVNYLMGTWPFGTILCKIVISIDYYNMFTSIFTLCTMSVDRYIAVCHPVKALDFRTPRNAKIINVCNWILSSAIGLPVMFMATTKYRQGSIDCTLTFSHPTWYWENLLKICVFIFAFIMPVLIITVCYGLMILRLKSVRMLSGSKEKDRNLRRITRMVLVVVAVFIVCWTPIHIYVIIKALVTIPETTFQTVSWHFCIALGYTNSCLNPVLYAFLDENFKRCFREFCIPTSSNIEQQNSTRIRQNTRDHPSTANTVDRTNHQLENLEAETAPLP
T1 sequence (P41145 whole entry): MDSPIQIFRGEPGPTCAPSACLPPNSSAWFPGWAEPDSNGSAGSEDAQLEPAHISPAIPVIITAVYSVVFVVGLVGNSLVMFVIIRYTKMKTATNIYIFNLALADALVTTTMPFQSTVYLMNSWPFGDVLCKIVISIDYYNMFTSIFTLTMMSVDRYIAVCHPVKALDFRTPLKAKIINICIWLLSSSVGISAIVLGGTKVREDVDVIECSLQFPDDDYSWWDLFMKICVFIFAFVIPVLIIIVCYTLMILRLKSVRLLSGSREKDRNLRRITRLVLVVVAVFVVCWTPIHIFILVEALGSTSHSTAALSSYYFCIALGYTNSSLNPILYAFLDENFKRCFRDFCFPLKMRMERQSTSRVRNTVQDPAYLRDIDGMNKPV
T10 sequence (P32245 whole entry): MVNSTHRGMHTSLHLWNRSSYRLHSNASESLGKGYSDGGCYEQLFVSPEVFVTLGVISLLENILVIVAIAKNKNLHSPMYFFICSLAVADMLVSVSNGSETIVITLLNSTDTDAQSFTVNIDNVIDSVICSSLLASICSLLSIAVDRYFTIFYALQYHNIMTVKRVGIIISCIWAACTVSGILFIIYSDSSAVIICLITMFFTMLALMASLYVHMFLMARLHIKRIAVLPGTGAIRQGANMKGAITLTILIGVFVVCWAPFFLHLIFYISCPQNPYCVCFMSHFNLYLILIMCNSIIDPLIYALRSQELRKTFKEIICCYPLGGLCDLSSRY
T5 sequence (P33032 whole entry): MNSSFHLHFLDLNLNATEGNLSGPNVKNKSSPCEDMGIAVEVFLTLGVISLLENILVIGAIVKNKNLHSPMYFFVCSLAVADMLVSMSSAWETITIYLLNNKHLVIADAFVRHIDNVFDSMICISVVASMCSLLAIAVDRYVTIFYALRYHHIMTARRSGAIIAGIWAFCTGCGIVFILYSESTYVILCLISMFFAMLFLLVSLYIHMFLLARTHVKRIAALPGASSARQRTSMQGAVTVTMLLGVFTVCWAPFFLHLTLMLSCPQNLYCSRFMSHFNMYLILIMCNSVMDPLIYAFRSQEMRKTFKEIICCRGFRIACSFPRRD
T4 sequence (P25103 whole entry): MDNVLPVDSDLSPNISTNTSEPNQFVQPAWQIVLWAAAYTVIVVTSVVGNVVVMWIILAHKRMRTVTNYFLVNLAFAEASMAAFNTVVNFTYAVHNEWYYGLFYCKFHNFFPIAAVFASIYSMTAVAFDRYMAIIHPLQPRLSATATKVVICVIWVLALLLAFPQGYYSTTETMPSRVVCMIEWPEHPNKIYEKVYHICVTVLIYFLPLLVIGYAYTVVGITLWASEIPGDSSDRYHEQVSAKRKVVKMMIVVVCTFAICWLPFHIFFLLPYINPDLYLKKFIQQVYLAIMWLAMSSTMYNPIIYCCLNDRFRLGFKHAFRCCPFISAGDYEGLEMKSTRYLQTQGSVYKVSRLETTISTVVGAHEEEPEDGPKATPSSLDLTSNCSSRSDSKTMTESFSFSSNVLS
T11 sequence (P41143 whole entry): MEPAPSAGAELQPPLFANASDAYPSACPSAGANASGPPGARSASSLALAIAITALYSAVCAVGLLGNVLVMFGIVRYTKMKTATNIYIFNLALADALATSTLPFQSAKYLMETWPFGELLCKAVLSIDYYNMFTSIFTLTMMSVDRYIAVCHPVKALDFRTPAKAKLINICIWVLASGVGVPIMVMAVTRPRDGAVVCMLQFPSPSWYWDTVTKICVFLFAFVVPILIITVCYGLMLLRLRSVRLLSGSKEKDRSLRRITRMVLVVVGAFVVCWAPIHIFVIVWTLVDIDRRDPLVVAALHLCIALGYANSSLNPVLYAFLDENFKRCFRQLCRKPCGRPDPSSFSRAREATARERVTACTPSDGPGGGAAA

| Structure (SMILES) | A2: inhibition of radioligand binding (Human κ-Opioid (KOP)) | A7: inhibition of radioligand binding (Human μ-opioid (MOP)) | A11: inhibition of radioligand binding (Mouse urotensin (mUR2)) | A8: inhibition of radioligand binding (Human neurokinin (NK1)) | A5: inhibition of radioligand binding (Human melanocortin (MC5)) | A6: inhibition of radioligand binding [1] | A10: inhibition of radioligand binding (Human opioid (ORL1)) | A9: inhibition of radioligand binding [2] | A3: inhibition of radioligand binding (Human Melanocortin (MC3)) | A4: inhibition of radioligand binding (Human Melanocortin (MC4)) | A1: inhibition of radioligand binding (Human δ-opioid (DOP)) |
| --- | --- | --- | --- | --- | --- | --- | --- | --- | --- | --- | --- |
| N=C(N)NCCC(=O)NC1C(OCc2ccc(Cl)cc2)OC(COCc2ccccc2)C(O)C1OCc1ccc(-c2ccccc2)cc1 (stereo not shown) [compound 433] | − (“−” indicates less than 50% inhibition at 10 μM) | − (“−” indicates less than 50% inhibition at 10 μM) | − (“−” indicates less than 50% inhibition at 10 μM) | + (“+” indicates greater than 50% inhibition at 10 μM) | + (“+” indicates greater than 50% inhibition at 10 μM) | + (“+” indicates greater than 50% inhibition at 10 μM) | − (“−” indicates less than 50% inhibition at 10 μM) | − (“−” indicates less than 50% inhibition at 10 μM) | − (“−” indicates less than 50% inhibition at 10 μM) | + (“+” indicates greater than 50% inhibition at 10 μM) | − (“−” indicates less than 50% inhibition at 10 μM) |
| N=C(N)NCCC(=O)NC1C(OCc2ccc(Cl)cc2)OC(COCc2ccc(Cl)cc2)C(O)C1OCc1ccc(-c2ccccc2)cc1 (stereo not shown) [compound 434] | − (“−” indicates less than 50% inhibition at 10 μM) | − (“−” indicates less than 50% inhibition at 10 μM) | − (“−” indicates less than 50% inhibition at 10 μM) | + (“+” indicates greater than 50% inhibition at 10 μM) | + (“+” indicates greater than 50% inhibition at 10 μM) | + (“+” indicates greater than 50% inhibition at 10 μM) | − (“−” indicates less than 50% inhibition at 10 μM) | − (“−” indicates less than 50% inhibition at 10 μM) | + (“+” indicates greater than 50% inhibition at 10 μM) | + (“+” indicates greater than 50% inhibition at 10 μM) | − (“−” indicates less than 50% inhibition at 10 μM) |
| N=C(N)NCCCC(=O)NC1C(OCc2ccc(-c3ccccc3)cc2)OC(COCc2ccccc2)C(O)C1OCc1ccccc1 (stereo not shown) [compound 435] | + (“+” indicates greater than 50% inhibition at 10 μM) | + (“+” indicates greater than 50% inhibition at 10 μM) | − (“−” indicates less than 50% inhibition at 10 μM) | + (“+” indicates greater than 50% inhibition at 10 μM) | + (“+” indicates greater than 50% inhibition at 10 μM) | + (“+” indicates greater than 50% inhibition at 10 μM) | + (“+” indicates greater than 50% inhibition at 10 μM) | − (“−” indicates less than 50% inhibition at 10 μM) | + (“+” indicates greater than 50% inhibition at 10 μM) | + (“+” indicates greater than 50% inhibition at 10 μM) | − (“−” indicates less than 50% inhibition at 10 μM) |
| NCCC(=O)N[C@H]1C(OCc2ccc3ccccc3c2)O[C@H](COCc2ccc3ccccc3c2)[C@@H](O)[C@@H]1OCc1ccc(Cl)cc1 (stereo partly shown) [compound 436] | − (“−” indicates less than 50% inhibition at 10 μM) | − (“−” indicates less than 50% inhibition at 10 μM) | − (“−” indicates less than 50% inhibition at 10 μM) | + (“+” indicates greater than 50% inhibition at 10 μM) | + (“+” indicates greater than 50% inhibition at 10 μM) | + (“+” indicates greater than 50% inhibition at 10 μM) | − (“−” indicates less than 50% inhibition at 10 μM) | − (“−” indicates less than 50% inhibition at 10 μM) | + (“+” indicates greater than 50% inhibition at 10 μM) | + (“+” indicates greater than 50% inhibition at 10 μM) | − (“−” indicates less than 50% inhibition at 10 μM) |
| NCCC(=O)N[C@H]1C(OCc2ccc3ccccc3c2)O[C@H](COCc2ccc3ccccc3c2)[C@@H](O)[C@@H]1OCc1ccc(Cl)cc1 (stereo partly shown) [compound 437] | − (“−” indicates less than 50% inhibition at 10 μM) | − (“−” indicates less than 50% inhibition at 10 μM) | − (“−” indicates less than 50% inhibition at 10 μM) | + (“+” indicates greater than 50% inhibition at 10 μM) | + (“+” indicates greater than 50% inhibition at 10 μM) | + (“+” indicates greater than 50% inhibition at 10 μM) | − (“−” indicates less than 50% inhibition at 10 μM) | − (“−” indicates less than 50% inhibition at 10 μM) | + (“+” indicates greater than 50% inhibition at 10 μM) | + (“+” indicates greater than 50% inhibition at 10 μM) | − (“−” indicates less than 50% inhibition at 10 μM) |

From US20080009418A1, “Selective Inhibitors” (Alchemia LTD., priority 2004, published 2008)
